These are literature values, as cited in patent US20240091144A1, “MULTI-LAYER ORAL THIN FILM” (LTS Lohmann Therapie-Systeme AG, priority 2021, published 2024).

The conditions of data set [1]: at 20° C.
The conditions of data set [2]: compared with (R)-ketamine.

`NC(CO)(CO)CO` [TRIS, tris(hydroxymethyl)aminomethane]: the pKs in data set [1] was 8.2. Take `CNC1(c2ccccc2Cl)CCCCC1=O` (racemic) [(S)-ketamine, (S)-(±)-2-(2-chlorophenyl)-2-(methylamino)cyclohexan-1-one]: the “analgesic and anaesthetic potency relative to the (R) form” value in data set [2] is “approximately three times higher”.
